Six compounds from PubChem BioAssay AID1963826 (Molecular Pharmacology Branch, DTP, NCI, 2024) can be followed below.

pIC50: −log10 of the molar value. Where “and” joins values, the source holds several entries; their conditions need not be identical. Identical values can stand only once.

The test system of this assay is 926638-142-R-J1-PDC complex spheroid viability. Description: Anticancer human tumor 926638-142-R-J1-PDC patient-derived endometrial carcinoma cell line growth inhibition [POLQ]. The conditions noted are these: for viability, T/C: stronger effect = lower value. The method, then: Multicellular complex tumor spheroid response to Polymerase (POL) inhibitors (novobiocin, ART-558, RP6685) in combination with a variety of drugs and investigational agents in selected tumor cell lines
The POL inhibitors (novobiocin, ART-558, and RP6685) were evaluated both individually and in combination with standard of care and investigational anticancer small molecules within a complex spheroid model of solid tumors. . Complex spheroids include a stromal component modeled by human endothelial cells (HUVEC) and fibroblasts modeled by human mesenchymal stem cells (MSCs). The concentration ranges selected for each drug and investigational agent were based upon clinically achievable concentrations if the clinical Cmax of the agent was known.
Compounds. The drugs and investigational agents: novobiocin (NSC847541), ART-558 (NSC835418), RP-6685 (NSC848927), peposertib (NSC802822), ceralasertib (NSC780249), elimusertib (NSC800525), camonsertib (NSC841442), AZD-1390 (NSC803789), olaparib (NSC753686), talazoparib (NSC767125), rucaparib (NSC756644), sotorasib (NSC818433), MRTX-1133 (NSC836407), SN-38 (NSC673596), topotecan (NSC609699), epotoside (NSC141540), doxorubicin (NSC123127), gemcitabine (NSC613327), 5-fluorouracil (NSC19893), paclitaxel (NSC125973), vemurafenib (NSC761431), MSA-2 (NSC828583), SN-011 (NSC837082), adavosertib (NSC754352), prexasertib (NSC758257), carboplatin (NSC241240) and oxaliplatin (NSC266046), were obtained from the National Cancer Institute (NCI) Developmental Therapeutics Program Chemical Repository (21). The FDA-approved anticancer drug set is available from the Developmental Therapeutics Program at https://dtp.cancer.gov/organization/dscb/obtaining/. […] The stock solutions were prepared in dimethyl sulfoxide (DMSO, Sigma-Aldrich, St. Louis, MO, cat. D2650), except for the platinum compounds which were prepared in saline (Quality Biological, Gaithersburg, MD, cat. 114-055-101), at 800-fold the tested concentration and stored at -70 degrees C prior to their use. All drugs and investigational agents were tested over a range starting from a high concentration at or near the clinical Cmax and decreasing in half-log increments. If the clinical Cmax for an agent had not been determined, the highest concentration tested was 10 microM, except for SN-38, which was tested at a high concentration of 1 microM.
Cell Culture. All cells were maintained in an incubator at 37 degrees C and 5% CO2 with 95% humidity. The PDC lines were cultured according to standard operating procedures established by the NCI PDMR (https://pdmr.cancer.gov). Table 3 of the manuscript, lists the cell lines along with the number of the three cell types plated to form the mct-spheroids and media for tumor cell growth. After thawing, all PDC lines, except 997537-175-T-J1-PDC and 415267-285-R-J2-PDC, were cultured in Matrigel-coated flasks prepared with a working solution of 1X Ham's F-12 nutrient mix, without supplementation (Thermo Fisher Scientific, cat. 11765054), 100 U/mL penicillin-streptomycin (Thermo Fisher Scientific, cat. 15140122), and 2.5% Matrigel (Corning Inc., Corning, NY, cat. 354248) for the first three passages. The two PDC lines 997537-175-T-J1-PDC and 415267-285-R-J2-PDC were cultured on uncoated flasks. The 857933-349-R-J2-PDC line was cultured in 6C/Colon 1B media containing advanced DMEM/F-12 (Thermo Fisher Scientific, cat. 12634028), 10 mM HEPES (Thermo Fisher Scientific, cat. 15630080), 1X GlutaMAX supplement (Thermo Fisher Scientific, cat. 35050061), 0.1 mg/mL primocin (InvivoGen, San Diego, CA, cat. ant-pm-2), 10% defined fetal bovine serum, heat inactivated (HyClone Laboratories Inc., Logan, UT, cat. SH30070.03HI), 50% L-WRN conditioned media (ATCC, cat. CRL-3276), 1.25 mM N-Acetyl-L-cysteine (Sigma-Aldrich, cat. A9165), 10 mM nicotinamide (Sigma-Aldrich, cat. N0636), 1X B-27 supplement (Thermo Fisher Scientific, cat. 17504044), 1X N-2 supplement (Thermo Fisher Scientific, cat. […]

Where [1] appears, read: curve of first compound, second compound 0.0316 µM.
[2] abbreviates: curve of first compound, second compound 0.1 µM.
Where [3] appears, read: curve of first compound, second compound 0.316 µM.
The mark [4] stands for this setting: curve of first compound, second compound 1 µM.
The mark [5] stands for this setting: curve of first compound, second compound 3.16 µM.
Where [6] appears, read: curve of first compound, second compound 10 µM.
The mark [7] stands for this setting: second compound 0.0316 µM, first compound 0.0316 µM.
[8] abbreviates: second compound 0.0316 µM, first compound 0.1 µM.
The mark [9] stands for this setting: second compound 0.0316 µM, first compound 0.316 µM.
The mark [10] stands for this setting: second compound 0.0316 µM, first compound 1 µM.
The mark [11] stands for this setting: second compound 0.0316 µM, first compound 3.16 µM.
Setting [12] is: second compound 0.0316 µM, first compound 10 µM.
Setting [13] is: second compound 0.1 µM, first compound 0.0316 µM.
The mark [14] stands for this setting: second compound 0.1 µM, first compound 0.1 µM.
Where [15] appears, read: second compound 0.1 µM, first compound 0.316 µM.
The mark [16] stands for this setting: second compound 0.1 µM, first compound 1 µM.
[17] abbreviates: second compound 0.1 µM, first compound 3.16 µM.
[18] abbreviates: second compound 0.1 µM, first compound 10 µM.
[19] abbreviates: second compound 0.316 µM, first compound 0.0316 µM.
Setting [20] is: second compound 0.316 µM, first compound 0.1 µM.
The mark [21] stands for this setting: second compound 0.316 µM, first compound 0.316 µM.
Where [22] appears, read: second compound 0.316 µM, first compound 1 µM.
Where [23] appears, read: second compound 0.316 µM, first compound 3.16 µM.
Setting [24] is: second compound 0.316 µM, first compound 10 µM.
Setting [25] is: second compound 1 µM, first compound 0.0316 µM.
The mark [26] stands for this setting: second compound 1 µM, first compound 0.1 µM.
The mark [27] stands for this setting: second compound 1 µM, first compound 0.316 µM.
The mark [28] stands for this setting: second compound 1 µM, first compound 1 µM.
Where [29] appears, read: second compound 1 µM, first compound 3.16 µM.
The mark [30] stands for this setting: second compound 1 µM, first compound 10 µM.
Setting [31] is: second compound 3.16 µM, first compound 0.0316 µM.
Where [32] appears, read: second compound 3.16 µM, first compound 0.1 µM.
[33] abbreviates: second compound 3.16 µM, first compound 0.316 µM.
Setting [34] is: second compound 3.16 µM, first compound 1 µM.
Setting [35] is: second compound 3.16 µM, first compound 3.16 µM.
Setting [36] is: second compound 3.16 µM, first compound 10 µM.
Where [37] appears, read: second compound 10 µM, first compound 0.0316 µM.
Where [38] appears, read: second compound 10 µM, first compound 0.1 µM.
Where [39] appears, read: second compound 10 µM, first compound 0.316 µM.
Where [40] appears, read: second compound 10 µM, first compound 1 µM.
Setting [41] is: second compound 10 µM, first compound 3.16 µM.
Setting [42] is: second compound 10 µM, first compound 10 µM.
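Note: spheroids exposed to drugs for one week before readout.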
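Throughout, for viability, T/C: percent viability relative to DMSO vehicle control wells set as 100%.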

As a reminder, the pIC50 is the IC50 on a negative log10 scale, so that one unit is a factor of ten. For orientation: viability, T/C means the ratio of treated to control. For the compound `COc1cc(C2c3cc4c(cc3C(OC3OC5COC(C)OC5C(O)C3O)C3COC(=O)C23)OCO4)cc(OC)c1O` (stereo not drawn) + Cc1cccc(N(C)C(=O)C2C(O)CCN2c2nc(C)cc(C(F)(F)F)c2C#N)c1, the pIC50 runs as follows: under setting [1], < 5.00; under setting [2], < 5.00; under setting [3], < 5.00; under setting [4], < 5.00; under setting [5], < 5.00; under setting [6], < 5.00. The viability, T/C was 83.5% under setting [7]; 62.5% under setting [8]; 72% under setting [9]; 73% under setting [10]; 56% under setting [11]; 60.1% under setting [12]. The viability, T/C reads like this: under setting [13], 76.8%; under setting [14], 71.4%; under setting [15], 72.3%; under setting [16], 62.7%; under setting [17], 67.7%; under setting [18], 56%. Also, the viability, T/C runs as follows: under setting [19], 95.5%; under setting [20], 84.1%; under setting [21], 77%; under setting [22], 57.6%; under setting [23], 63.9%; under setting [24], 49.1%. Moreover, the viability, T/C is, setting by setting: under setting [25], 89.3%; under setting [26], 80.8%; under setting [27], 72.2%; under setting [28], 77.9%; under setting [29], 67.8%; under setting [30], 61.3%. For the same compound, the viability, T/C by setting is: under setting [31], 75.8%; under setting [32], 71.8%; under setting [33], 69.9%; under setting [34], 79.3%; under setting [35], 62.7%; under setting [36], 50.2%. Besides, the viability, T/C runs as follows: under setting [37], 80.1%; under setting [38], 83.9%; under setting [39], 73.6%; under setting [40], 70.9%; under setting [41], 59%; under setting [42], 60.6%.
On to `COc1cc2cc(C(=O)CCC(=O)O)sc2cc1OC` + COC1C(OC(N)=O)C(O)C(Oc2ccc3c(O)c(NC(=O)c4ccc(O)c(CC=C(C)C)c4)c(=O)oc3c2C)OC1(C)C, for which the negative-log IC50 (pIC50) reads like this: under setting [1], < 5.00; under setting [2], < 5.00; under setting [3], < 5.00; under setting [4], < 5.00; under setting [5], < 5.00; under setting [6], < 5.00. The viability, T/C by setting is: under setting [7], 93.6%; under setting [8], 98.3%; under setting [9], 87.9%; under setting [10], 106%; under setting [11], 99.6%; under setting [12], 104%. Besides, the viability, T/C is 85.9% under setting [13]; 97.5% under setting [14]; 98.2% under setting [15]; 86.4% under setting [16]; 94.3% under setting [17]; 101% under setting [18]. In addition, the viability, T/C runs as follows: under setting [19], 105%; under setting [20], 113%; under setting [21], 88.1%; under setting [22], 110%; under setting [23], 91.6%; under setting [24], 110%. Also, the viability, T/C is 86.7% under setting [25]; 93% under setting [26]; 94.5% under setting [27]; 97.9% under setting [28]; 97.7% under setting [29]; 111% under setting [30]. Moreover, the viability, T/C was 99.2% under setting [31]; 101% under setting [32]; 103% under setting [33]; 89.3% under setting [34]; 81.1% under setting [35]; 75.1% under setting [36]. The viability, T/C is, setting by setting: under setting [37], 98.4%; under setting [38], 109%; under setting [39], 102%; under setting [40], 106%; under setting [41], 81.1%; under setting [42], 99.7%.
In the case of `C=CCn1c(=O)c2cnc(Nc3ccc(N4CCN(C)CC4)cc3)nc2n1-c1cccc(C(C)(C)O)n1`, the viability, T/C was 85% and 93.8% and 95.4% (compound 0.00316 µM); 80.4% and 77.2% and 83.5% (compound 0.01 µM); 99.2% and 71.9% and 92.3% (compound 0.0316 µM); 95.8% and 78.3% and 77% (compound 0.1 µM); 47.6% and 50.2% and 49% (compound 0.316 µM); 36.5% and 43.9% and 48.2% (compound 1 µM). Besides, where the note is “curve of compound”, the pIC50 is 6.53 and 6.27 and 6.52.
On to `C#Cc1c(F)ccc2cc(O)cc(-c3ncc4c(N5CC6CCC(C5)N6)nc(OCC56CCCN5CC(F)C6)nc4c3F)c12` (stereo not drawn), for which the viability, T/C was 85.1% and 98.5% and 86.6% (compound 0.0316 µM); 88.2% and 90.2% and 93.3% (compound 0.1 µM); 79.4% and 92.4% and 73.8% (compound 0.316 µM); 78.3% and 69.2% and 77.4% (compound 1 µM); 65.5% and 80.2% and 60.2% (compound 3.16 µM); 52.5% (2×) and 67.8% (compound 10 µM). For the setting “curve of compound”, the pIC50 was < 5.00.
As to `CC1COCCN1c1cc(C2(S(C)(=N)=O)CC2)nc(-c2ccnc3[nH]ccc23)n1` (stereo not drawn), the viability, T/C reads like this: (compound 0.0316 µM) 103% and 96.2% and 125%; (compound 0.1 µM) 100% and 97.9% and 87.2%; (compound 0.316 µM) 94.2% and 87.3% and 90%; (compound 1 µM) 88.5% and 93.7% and 95%; (compound 3.16 µM) 64.7% and 71.3% and 62.5%; (compound 10 µM) 32.1% and 35.3% and 33.8%. The pIC50 (curve of compound) is 5.27 and 5.21 and 5.26.
Turning to `COC1C(OC(N)=O)C(O)C(Oc2ccc3c(O)c(NC(=O)c4ccc(O)c(CC=C(C)C)c4)c(=O)oc3c2C)OC1(C)C` (stereo not drawn), the viability, T/C runs as follows: (compound 0.316 µM) 101% [middle of 13 runs]; (compound 10 µM) 98.8% [middle of 13 runs]. Besides, the pIC50 (compound alone, run of 01/08/2024) was < 5.00.
